Peptide text beside a SMILES is read from it. * marks the point of attachment. Biotin = O=C1N[C@H]2[C@H](CS[C@H]2CCCCC(=O)*)N1; Cam = NC(=O)C*
T1: NRP1 (Homo sapiens, UniProt O14786)
T1 construct: purchased Sino Biological Inc. 10011-H02H
T1 sequence (O14786 22-644 isoform O14786-2 limits assumed): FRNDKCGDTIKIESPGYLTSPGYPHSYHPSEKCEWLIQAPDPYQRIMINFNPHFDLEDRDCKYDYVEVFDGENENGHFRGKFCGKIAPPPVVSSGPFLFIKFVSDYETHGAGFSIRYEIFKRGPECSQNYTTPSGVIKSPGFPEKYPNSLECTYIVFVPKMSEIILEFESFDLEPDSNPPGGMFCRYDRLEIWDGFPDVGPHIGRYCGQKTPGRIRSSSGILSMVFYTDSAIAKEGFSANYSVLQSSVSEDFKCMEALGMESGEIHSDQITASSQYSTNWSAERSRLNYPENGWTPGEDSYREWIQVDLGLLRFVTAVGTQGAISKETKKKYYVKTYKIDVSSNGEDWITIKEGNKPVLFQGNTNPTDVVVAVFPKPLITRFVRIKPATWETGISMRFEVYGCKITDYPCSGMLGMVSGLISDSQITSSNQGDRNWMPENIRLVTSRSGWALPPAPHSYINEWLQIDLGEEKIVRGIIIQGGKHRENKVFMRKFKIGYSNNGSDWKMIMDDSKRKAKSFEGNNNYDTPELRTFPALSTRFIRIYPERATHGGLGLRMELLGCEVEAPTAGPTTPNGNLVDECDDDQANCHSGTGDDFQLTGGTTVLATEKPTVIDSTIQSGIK

T2: Neuropilin-1 (NRP1) (UniProt O14786 22-856)
T2 construct: The R&D Systems NRP1 Phe22-Lys644 (Cat# 3870-N1) was only a control in Western blots
T2 sequence (looked up): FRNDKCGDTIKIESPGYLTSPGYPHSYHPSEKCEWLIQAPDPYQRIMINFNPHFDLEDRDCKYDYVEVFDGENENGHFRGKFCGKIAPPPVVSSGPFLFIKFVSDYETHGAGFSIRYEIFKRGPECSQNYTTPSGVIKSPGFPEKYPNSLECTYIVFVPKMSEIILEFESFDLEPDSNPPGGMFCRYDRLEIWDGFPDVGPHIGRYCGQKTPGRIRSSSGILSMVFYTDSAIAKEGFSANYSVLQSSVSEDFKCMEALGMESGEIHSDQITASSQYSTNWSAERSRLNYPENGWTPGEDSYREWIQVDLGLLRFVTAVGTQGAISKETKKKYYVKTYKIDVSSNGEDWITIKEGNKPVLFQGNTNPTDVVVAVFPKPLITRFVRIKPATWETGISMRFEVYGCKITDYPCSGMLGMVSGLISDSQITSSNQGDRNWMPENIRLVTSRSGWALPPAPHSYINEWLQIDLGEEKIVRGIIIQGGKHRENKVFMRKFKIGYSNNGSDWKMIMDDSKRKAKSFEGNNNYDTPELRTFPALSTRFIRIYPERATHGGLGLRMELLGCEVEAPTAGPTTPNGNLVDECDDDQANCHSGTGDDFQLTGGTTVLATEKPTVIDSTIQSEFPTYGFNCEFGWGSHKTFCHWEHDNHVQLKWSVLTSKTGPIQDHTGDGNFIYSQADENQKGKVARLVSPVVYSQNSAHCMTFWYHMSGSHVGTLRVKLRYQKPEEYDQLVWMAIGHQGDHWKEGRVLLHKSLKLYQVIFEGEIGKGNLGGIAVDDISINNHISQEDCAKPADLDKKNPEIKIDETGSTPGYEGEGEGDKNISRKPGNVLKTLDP

B1: Biotinylated VEGF165 (ligand)
chain: APMAEGGGQNHHEVVKFMDVYQRSYCHPIETLVDIFQEYPDEIEYIFKPSCVPLMRCGGCCNDEGLECVPTEESNITMQIMRIKPHQGQHIGEMSFLQHNKCECRPKKDRARQENPCGPCSERRKHLFVQDPQTCKCSCKNTDSRCKARQLELNERTCRCDKPRR
modifications: biotin

What was measured:
NRP1 [1] = biological target: T1, NRP1; experiment: Bio-layer interferometry (Octet) binding of Cltx and derived peptides to NRP1; conditions: BLI; biotinylated peptides on streptavidin biosensors, NRP1 0 to 1750 nM; mean of 2 to 6 independent experiments; ns = no significant binding
Experimental: Octet binding studies required biotinylation of Cltx and derived peptides for loading onto streptavidin biosensors. Trypsin, (Promega Cat# V5280) (~ 40 μg/mL) was added to Cltx biotinylated at K27 or N-terminus (10 mg/mL) and incubated for 24 h at 37 °C, pH 8.5. The resulting peptides were separated by preparative HPLC and peptide fragments were characterized by MALDI. Small linear Cltx-derived peptides were also synthesized by routine methods and were biotinylated at the N-terminus. In some cases, peptides were reduced with TCEP at pH 8 and the cysteine residues were capped using iodoacetamide.
Assessment of binding between NRP1and Cltx was performed by Bio-Layer Interferometry (BLI) using the Octet Red96 System (ForteBio, Pall). Cltx and derived fragments were captured on streptavidin biosensors (Cat# 18–5020) under approximately equivalent loading conditions; sensors were then quenched with EZ-Link Biocytin and washed in assay buffer (PBS, 1% BSA, 0.05% Tween20).

crayfish = experiment: Crayfish bioassay (neurotoxicity, paralysis); assay type: in vivo; conditions: 20 µg per injection, n=8 crayfish; Kaplan-Meier analysis
Experimental: The crayfish assay to determine bioactivity of Cltx was performed at ABC Labs (Columbia, MO, now EAG Labs) using an SOP generated by TransMolecular Inc. Cltx peptide (20 μg) in sterile water was injected through the ventral surface of the thorax in the region of the sub-esophageal ganglion of crayfish which were then subjected to physical challenge defined as multiple, continuous, gentle prods in random parts of the body from head to tail. The animal’s response is based on avoidance, ability to right itself, and clasping with chelae in a defensive manner. Time from injection to total incapacitation was recorded; total incapacitation is defined as the time when the tested crayfish is not responsive when physically challenged.

NRP1 [2] = biological target: T1, NRP1; experiment: BLI competition with biotinylated VEGF165 for binding to NRP1; conditions: NRP1 fixed at 390 nM, Cltx peptide 50 to 800 μmol/L
Neuropilin-1 (NRP1) = biological target: T2, Neuropilin-1 (NRP1); experiment: BLI; affinity of NRP1 for VEGF given beside the peptides of Table 1; set-up for VEGF not told separately; conditions: both partners purified

| Molecule | Kd (NRP1 [1]) [nM] | further results |
| --- | --- | --- |
| CSCC[C@H](NC(=O)CCCC[C@@H]1SC[C@@H]2NC(=O)N[C@@H]21)C(=O)N[C@H]1CSSC[C@@H](C(=O)N[C@@H](Cc2ccccc2)C(=O)N[C@H](C(=O)N[C@H](C(=O)N[C@@H](CC(=O)O)C(=O)N[C@@H](Cc2c[nH]cn2)C(=O)N[C@@H](CCC(N)=O)C(=O)N[C@@H](CCSC)C(=O)N[C@@H](C)C(=O)N[C@@H](CCCNC(=N)N)C(=O)O)[C@@H](C)O)[C@@H](C)O)NC(=O)[C@@H]2CCCN2C(=O)[C@H](CCSC)NC1=O [C00003] | 167 |  |
| CC(C)C[C@H](NC(=O)[C@H](CSCC(N)=O)NC(=O)[C@H](CCC(N)=O)NC(=O)[C@@H]1CCCN1C(=O)CNC(=O)[C@H](Cc1ccc(O)cc1)NC(=O)CCCC[C@@H]1SC[C@@H]2NC(=O)N[C@@H]21)C(=O)N[C@@H](CSCC(N)=O)C(=O)N[C@@H](CCCNC(=N)N)C(=O)O [C00008] (Biotin-YGPQC(Cam)LC(Cam)R-OH) | 297 |  |
| CC(C)C[C@H](NC(=O)[C@H](CSCC(N)=O)NC(=O)CCCC[C@@H]1SC[C@@H]2NC(=O)N[C@@H]21)C(=O)N[C@@H](CSCC(N)=O)C(=O)N[C@@H](CCCNC(=N)N)C(=O)O [C00011] (Biotin-C(Cam)LC(Cam)R-OH) | 335 |  |
| Chlorotoxin [Cltx-CONH2] |  | Median time to paralysis (total incapacitation) (crayfish): 25 s; Competition with biotinylated VEGF for binding to NRP1 (NRP1 [2]): not |
| B1 |  | Kd (Neuropilin-1 (NRP1)): ~50 nM |
